# Laboratory results: publication PMC13576449, “Small-Molecule Activators of PRMT1: Discovery, SAR Analyses, and Proapoptotic Effects in Pancreatic Cancer Cells” (Journal of Medicinal Chemistry, 2026)
# What was measured:
# [1] = molecular target: T1, FLAG-tagged PRMT3 (Homo sapiens, UniProt O60678); test: Fluorescence-based in vitro PRMT assay (F-PRMT assay), PRMT3; type: biochemical; conditions: for Experimental result (PRMT3): vs solvent control = 100%
# T1 construct: The complete ORFs of human PRMT3 and PRMT6 were inserted; made in house; host or cells: Sf9 insect cells (baculovirus)
# T1 sequence (O60678 whole entry): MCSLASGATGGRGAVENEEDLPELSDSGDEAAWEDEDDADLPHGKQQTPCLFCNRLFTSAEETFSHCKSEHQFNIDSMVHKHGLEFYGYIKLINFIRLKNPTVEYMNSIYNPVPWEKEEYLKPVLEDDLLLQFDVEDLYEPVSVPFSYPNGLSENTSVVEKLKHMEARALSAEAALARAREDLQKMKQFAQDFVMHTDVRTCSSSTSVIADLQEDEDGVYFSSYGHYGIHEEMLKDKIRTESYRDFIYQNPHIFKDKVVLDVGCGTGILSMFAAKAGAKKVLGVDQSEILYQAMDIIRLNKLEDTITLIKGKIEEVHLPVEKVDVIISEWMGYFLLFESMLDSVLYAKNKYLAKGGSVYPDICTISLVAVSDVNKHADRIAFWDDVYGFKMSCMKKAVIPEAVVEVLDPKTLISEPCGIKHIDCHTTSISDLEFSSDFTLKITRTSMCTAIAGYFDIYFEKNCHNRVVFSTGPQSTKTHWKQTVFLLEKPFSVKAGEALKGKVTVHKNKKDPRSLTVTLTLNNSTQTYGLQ
# Excerpt: To evaluate the effects of the selected candidate molecules on the catalytic activity of type I enzymes, we employed a quantitative fluorescence-based in vitro PRMT activity (F-PRMT) assay using recombinant FLAG-tagged PRMT proteins expressed and affinity-purified from baculovirus-infected Sf9 cells (SI Figure S1, SI Figure S2A).
# Human cell lines (PaTu8988T, PANC-1) were obtained from ATCC (American Type Culture Collection) and cultured in DMEM supplemented with 10% fetal calf serum (FCS, Gibco/BRL), 1% penicillin/streptomycin at 37 °C and 5% CO2. […] For PRMT1 inhibition, cells were treated with type I PRMT inhibitor MS023 hydrochloride (Biomol). For induction of genotoxic stress, cells were treated with gemcitabine (LC Laboratories). […] The following plasmids were used: pFASTBAC-FLAG-rat PRMT1, pFASTBAC-FLAG-mouse PRMT4, and pGEX-GAR. The complete ORFs of human PRMT3 and PRMT6 were inserted into the pFASTBAC HT-3xFLAG B vector via BamHI/HindIII and BamHI/XhoI sites, respectively.
# For PRMT protein expression in insect cells, recombinant baculovirus (bacmid) was generated using the Bac-to-Bac baculovirus system (Invitrogen). Sf9 cells were transfected with bacmid DNA using X-tremeGENE HP DNA transfection reagent (Sigma-Aldrich) according to the manufacturer's instructions. After 3–5 days, supernatants were collected, filtered, and used to infect Sf9 cells to amplify the virus. After 2 rounds of virus amplification and estimation of the final P3 virus titer, the P3 virus (2–5 μL/10^6 cells) was applied for large-scale infection of 200 × 10^6 Sf9 cells in suspension culture at a density of 1 × 10^6 cells/mL. Cells were harvested 5–6 days post-infection by centrifugation at 500 g for 5 min at room temperature. Protein purification from baculovirus-infected Sf9 cells was performed as previously described. , Cells were lysed in BC buffer (20 mM HEPES pH 7.9, 250 mM NaCl, 10% (v/v) glycerin, 0.4 mM EDTA, 1 mM DTT) containing a protease inhibitor cocktail (Roche) by 3 freeze-thaw cycles. After centrifugation at 11,000 rpm (Sorval SS34 rotor) and 4 °C for 1 h, the supernatant (whole cell protein extract) was incubated with anti-FLAG M2 Affinity Gel (Cytiva) at 4 °C and under agitation for 4 h. Subsequently, beads were washed in BC buffer containing various NaCl concentrations (once in BC with 1 M NaCl, twice in BC with 500 mM NaCl, twice in BC with 250 mM NaCl and twice in BC with 100 mM NaCl). FLAG-tagged proteins were either maintained bead-bound as a 50% (v/v) slurry in BC buffer with 100 mM NaCl and stored at −80 °C or were eluted in the appropriate elution buffer (depending on the subsequent assay) containing 0.25 mg/mL 3xFLAG peptides (Sigma-Aldrich) at 4 °C for 30–45 min. To remove the FLAG-peptides from the eluate, dialysis was performed in elution buffer containing 10% (v/v) glycerol at 4 °C for 4–6 h using Slide-A-Lyzer Dialysis Devices (Thermo Fisher Scientific) according to the manufacturer’s recommendations.
# In the first step, the fluorogenic substrate Nα-Benzoyl-L-arginine-7-amido-4-methylcoumarin (Bz-Arg-AMC, Sigma-Aldrich) undergoes methylation by PRMTs upon the addition of the cofactor SAM. In the second reaction step, trypsin cleaves the nonmethylated substrate, leading to the generation of the 7-amino-4-methylcoumarin product, which can be quantified by subsequent fluorescence measurement (excitation: 355 nm, emission: 460 nm). The first reaction was conducted with bead-bound PRMTs at a total volume of 100 μL. Each condition was performed as a technical triplicate to determine the mean and the standard deviation. […] For the negative controls, SAM was substituted with assay buffer. The incubation was continued at 37 °C and under agitation (1,000 rpm) for a duration of 2 h.
# [2] = tested on: FLAG-tagged PRMT1 and His-tagged PRMT1; test: Pulldown assay of PRMT1 homodimerization; type: binding; conditions: 200 (and 500) μM compound vs DMSO
# Excerpt: The poses were obtained by docking with HYBRID onto previously obtained docking poses of TR-033 (TR-07 in cyan) and TR-036 (TR-07 in red). The two monomers are colored in dark and light gray. The dimerization arm of the right monomer is colored in pale pink. The αY helix of the other monomer is colored pale green. The SAH location (derived from a superposition with PDB ID 6NT2) is indicated in pale yellow, but the molecule was not present during the docking calculations. The two images on the right show a close-up view of each docking pose separately. […] The dashed line separates the first and the second monomer. […] The N-terminal αY helix, the SAH location (derived from a superposition with PDB ID 3Q7E), the arginine acceptor site (derived from a superposition with PDB ID 1OR8), the Double E loop, and the dimerization arm are indicated. […] Subsequently, FLAG-beads were washed and bead-bound proteins were analyzed together with an His-tagged PRMT1 input (20 ng) by Western blot using antibodies against the His- and FLAG-tags. As negative control, anti-FLAG resin saturated with FLAG peptide was incubated with His-tagged PRMT1. The His-PRMT1 signals were densitometrically quantified, corrected to the FLAG-PRMT1 signals, and expressed relative to the solvent control, as specified by the numbers below the immunostainings. Molecular weights (kDa) of the protein marker are indicated.
# To evaluate the effect of small-molecule PRMT1 modulators on the dimerization of His-tagged and FLAG-tagged PRMT1, pulldown assays were conducted. For the binding reactions, 1 μg of bead-bound FLAG-tagged PRMT1 was preincubated with or without compounds at a total volume of 200 μL IPH buffer (50 mM Tris/HCl pH 8.0, 5 mM EDTA, 0.5% (v/v) NP-40, 150 mM NaCl) containing protease inhibitors (leupeptin, aprotinin, PMSF; Sigma-Aldrich) at 4 °C and under gentle agitation for 30 min. Subsequently, 0.02 μg His-tagged PRMT1 was added per reaction and incubated at 4 °C and under gentle agitation for 15 min. Finally, the beads were washed 3 times in IPH buffer containing 400 mM NaCl and analyzed by SDS-PAGE and immunoblotting.
Compound,effect on PRMT3 activity (in words) ([1]; 100 μM compound),"Experimental result (PRMT3) ([1]; Table 1, 100 μM compound, 2 μM PRMT, n = 3, racemates used)","Experimental result (PRMT3) ([1]; Table S3, 100 µM compound, n≥3)",interaction of FLAG-tagged PRMT1 and His-tagged PRMT1 (homodimerization) [2]
"CN(C)Cc1cccc(CN/C=C2\C(=O)NC(=O)c3ccccc32)c1.Cl [TR-07, (Z)-1-[3-({[(1,3-Dioxo-2,3-dihydroisoquinolin-4(1H)-lidene)methyl]amino}methyl)phenyl]-N,N-dimethylmethanaminium chloride]",neither positively nor negatively influencing,"PRMT3 n.e. (Compounds, which did not significantly affect the catalytic activity (less than ±6% change or not significant p-value), are marked with [drawing 8] (no effect))","n.e. (did not significantly affect the catalytic activity (less than ±6% change or not significant p-value), are marked with n.e. (no effect))",elevated interaction of the two PRMT1 species
"CN(C)Cc1cccc(-c2ccc3[nH]c(=O)c4ccccc4c3c2)c1 [TR-033, 2-{3-[(Dimethylamino)methyl]phenyl}phenanthridin-6(5H)-One]",,,,elevated interaction of the two PRMT1 species
"CCN(CC)Cc1cccc(N/C=C2\C(=O)NC(=O)c3ccccc32)c1.Cl [TR-036, (Z )-N-(3-{[(1,3-Dioxo-2,3-dihydroisoquinoline-4(1 H )-ylidene)methyl]amino}benzyl)-N -ethylethanaminium chloride]",,,,elevated interaction of the two PRMT1 species
"(Z)-2-(2-{[(1,3-Dioxo-2,3-dihydroisoquinolin-4(1H)-ylidene)methyl]amino}phenyl)-N,N-dimethylethan-1-aminium chloride [ICTR-059]",concomitant PRMT3 activation,,,elevated interaction of the two PRMT1 species
